Measured values reported in publication PMC10962703 (bioRxiv, 2024).
“And” between values parts separate entries of the source, which are not always exact repeats. Equal values may be shown once. “Also recorded” adds a separate entry of the source.

Legend:
human D4R = test: Radioligand competition binding, HEK293 membranes, hD4R; details: [3H]-(R)-(+)-7-OH-DPAT
human DA D4.4 receptors = molecular target: T1, human DA D4.4 receptors (Homo sapiens, UniProt P21917); format: cell-based; details: inhibition of forskolin-stimulated cAMP formation
T1 sequence (P21917 1-419): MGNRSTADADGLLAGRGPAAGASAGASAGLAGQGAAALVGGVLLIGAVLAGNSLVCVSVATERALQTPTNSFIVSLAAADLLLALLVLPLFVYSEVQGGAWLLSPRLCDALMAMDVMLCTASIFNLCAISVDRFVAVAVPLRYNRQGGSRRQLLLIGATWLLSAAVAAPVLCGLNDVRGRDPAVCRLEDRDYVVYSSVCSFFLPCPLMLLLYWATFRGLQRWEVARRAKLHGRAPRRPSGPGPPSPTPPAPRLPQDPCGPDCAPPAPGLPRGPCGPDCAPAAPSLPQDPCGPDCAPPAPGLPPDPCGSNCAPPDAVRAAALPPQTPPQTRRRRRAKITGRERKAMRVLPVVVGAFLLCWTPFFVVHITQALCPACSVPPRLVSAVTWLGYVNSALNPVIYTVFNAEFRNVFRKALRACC

human D3R [1] = molecular target: T2, human D3R (Homo sapiens, UniProt P35462); test: D3R-mediated mitogenesis; format: cell-based; details: for Emax: read-out: D3R mitogenesis Emax
T2 sequence (P35462 whole entry): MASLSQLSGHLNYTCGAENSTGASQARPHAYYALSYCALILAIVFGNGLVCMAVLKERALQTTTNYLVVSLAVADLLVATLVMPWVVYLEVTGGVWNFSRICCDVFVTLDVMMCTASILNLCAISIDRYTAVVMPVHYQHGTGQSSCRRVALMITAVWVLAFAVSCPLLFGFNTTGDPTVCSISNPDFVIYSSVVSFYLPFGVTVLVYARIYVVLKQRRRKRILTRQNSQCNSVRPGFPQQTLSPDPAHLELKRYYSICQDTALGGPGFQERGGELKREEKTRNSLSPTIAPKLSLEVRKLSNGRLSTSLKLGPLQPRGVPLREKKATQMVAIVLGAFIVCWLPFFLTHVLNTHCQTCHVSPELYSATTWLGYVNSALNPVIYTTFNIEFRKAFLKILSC

human D2R [2] = molecular target: T3, human D2R (Homo sapiens, UniProt P14416); test: cell-based; format: cell-based; details: for Emax: read-out: D2R mitogenesis Emax
Target sequence in this assay (P14416 whole entry): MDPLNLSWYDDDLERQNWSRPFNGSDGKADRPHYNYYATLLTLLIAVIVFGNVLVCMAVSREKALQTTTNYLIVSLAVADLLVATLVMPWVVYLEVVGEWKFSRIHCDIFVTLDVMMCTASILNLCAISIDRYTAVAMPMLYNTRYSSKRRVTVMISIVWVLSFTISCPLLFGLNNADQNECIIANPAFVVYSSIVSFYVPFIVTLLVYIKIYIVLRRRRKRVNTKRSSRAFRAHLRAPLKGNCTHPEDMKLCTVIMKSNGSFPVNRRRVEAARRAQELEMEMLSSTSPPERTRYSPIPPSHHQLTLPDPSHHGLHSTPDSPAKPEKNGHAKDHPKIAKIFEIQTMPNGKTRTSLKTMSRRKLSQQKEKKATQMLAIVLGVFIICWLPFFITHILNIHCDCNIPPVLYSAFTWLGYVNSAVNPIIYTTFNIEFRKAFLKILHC

[3] = In vivo pharmacokinetics, plasma and brain levels; set-up: species or system CD1 mice; details: for Brain Conc.: mean ± SEM, n=3; for Kp at 0.25 h / Kp at 1 h / concentration at 15 min / concentration at 60 min: male, CD1, mouse, 10 mg/kg; for Kp at 0.25 h / Kp at 1 h: brain, iv; for concentration at 15 min / concentration at 60 min: plasma, intravenous
human D2R [4] = molecular target: T3, human D2R; details: [3H]-(R)-(+)-7-OH-DPAT
Target sequence in this assay (P14416 whole entry): as above

[5] = tested on: Western diet-fed wild-type C57BL/6J mice; test: Insulin tolerance testing in diet-induced obesity model; format: in vivo; details: 10 mg/kg i.p. daily, 12 weeks
human D2R [6] = molecular target: T3, human D2R; format: cell-based
Target sequence in this assay (P14416 whole entry): as above
Target sequence in this assay (P63096 2-354 partner limits assumed): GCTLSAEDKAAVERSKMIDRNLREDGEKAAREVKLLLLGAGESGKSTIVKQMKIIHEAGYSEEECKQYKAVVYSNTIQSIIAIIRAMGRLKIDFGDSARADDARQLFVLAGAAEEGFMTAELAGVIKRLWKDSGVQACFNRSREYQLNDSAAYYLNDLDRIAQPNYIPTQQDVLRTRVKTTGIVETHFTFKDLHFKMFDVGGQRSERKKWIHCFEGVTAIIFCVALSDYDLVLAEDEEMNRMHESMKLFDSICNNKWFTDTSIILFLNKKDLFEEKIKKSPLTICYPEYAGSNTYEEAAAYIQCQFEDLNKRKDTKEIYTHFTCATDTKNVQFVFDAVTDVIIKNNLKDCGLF

[7] = Mouse microsomal stability assay; format: in vitro ADME; details: mouse liver microsomes + NADPH, 1 µM, 30 min
human D3R [8] = molecular target: T2, human D3R; test: biochemical
[9] = tested on: Western diet-fed wild-type C57BL/6J mice; test: Body weight in diet-induced obesity model; format: in vivo; details: 10 mg/kg i.p. daily, at 12 weeks
human D2R [10] = molecular target: T3, human D2R; test: biochemical
Target sequence in this assay (P14416 whole entry): as the sequence (P14416 whole entry) above

[11] = tested on: Western diet-fed wild-type C57BL/6J mice; test: Oral glucose tolerance testing in diet-induced obesity model; format: in vivo; details: for fasting blood glucose: 6-h fast
human D3R [12] = molecular target: T2, human D3R; test: Radioligand competition binding, HEK293 membranes, hD3R; details: [3H]-(R)-(+)-7-OH-DPAT
INS-1E cells = test: Glucose-stimulated insulin secretion; format: cell-based, rat
Sprague-Dawley rats = test: Intracerebroventricular L-DOPA infusion, plasma glucose and insulin; format: in vivo; details: 10 mM i.c.v. infusion, 5 µL/h, 3.5 h
[13] = 10 mg/kg i.v., 60 min versus 15 min

Structure (SMILES) | EC50 (human D3R [1]) [nM] | Emax (human D3R [1]) [%] | Emax (human D2R [2]) [%] | Brain Conc. ([3]; 10 mg/kg i.v., 15 min) [pmol/g] | Brain Conc. ([3]; 10 mg/kg i.v., 60 min) [pmol/g] | Kp at 0.25 h [3] | Kp at 1 h [3] | concentration at 15 min [3] [nM] | concentration at 60 min [3] [nM] | D3R/D2R ratio of binding affinity (human D2R [4]) | Ki (human D3R [8]) [nM] | Ki (human D2R [10]) [nM] | decrease in GSIS potency versus unmodified parent (INS-1E cells) [fold] | further results
Cc1cccc(NC(=O)C[N+]2(C)CCC(c3ccccc3)CC2)c1.[I-] (stereo not shown) [AB01–102, 1-Methyl-1-(2-oxo-2-(m-tolylamino)ethyl)-4-phenylpiperidin-1-ium iodide] | – | – | – | – | – | – | – | – | – | – | – | – | – | loss of D4R binding affinity compared to unmodified parent (human D4R): 61.7 fold; diminished potency in D4R cAMP assay compared to unmodified parent (human DA D4.4 receptors): 731.9 fold; functional behaviour in D4R cAMP assay (human DA D4.4 receptors; relative to (−)-quinpirole): partial agonists
CN[C@@H]1Cc2cccc3[nH]c(=O)n(c23)C1 [Sumanirole, sumanirole] | 224 ± 24 | 180 | 110 | – | – | – | – | – | – | – | – | – | – | –
CC(C)C[C@H]1C(=O)N2CCC[C@H]2[C@]2(O)O[C@](NC(=O)[C@@H]3C=C4c5cccc6[nH]c(Br)c(c56)C[C@H]4N(C)C3)(C(C)C)C(=O)N12 [Bromocriptine, bromocriptine] | 3.4 ± 1.1 | – | 99 | 995.2 ± 188.0 | 71.1 ± 2.3 | 0.74 ± 0.11 | 0.45 ± 0.05 | 1340 ± 52.2 | 159 ± 15 | 3.46 | 2.05 ± 0.56 | 0.59 ± 0.17 | – | decrease in brain level by 60 min post-administration [3, 13]: 92.9%; decrease in plasma level by 60 min post-administration [3, 13]: 88.2%; insulin sensitivity / blood glucose during ITT versus vehicle ([5]; 1.5 U/kg insulin): significant improvements in insulin sensitivity; plasma insulin during ITT ([5]; initial 15 min of ITT): significantly enhanced plasma insulin levels; less efficacy than DA in Gαi1 recruitment to D2R (human D2R [6]): 47%; % drug remaining [7]: entirely metabolized; % drug remaining ([7]; listed as bromocriptine): complete disappearance; body weight versus vehicle [9]: neither systemic bromocriptine nor BrMeI treatments had significant effects on weight; also recorded: no significant effect; glucose tolerance (OGTT) versus vehicle ([11]; 10 mg/kg i.p. daily, 12 weeks): significant improvements in glucose tolerance; also recorded: improvement in glucose tolerance; fasting blood glucose ([11]; 10 mg/kg i.p. daily, 12 weeks): significantly lower fasting blood glucose; fasting blood glucose ([11]; 10 mg/kg i.p. daily, 12 weeks, listed as bromocriptine): significantly lower fasting glucose; glucose tolerance (OGTT) versus i.c.v. vehicle ([11]; i.c.v. daily, 8 weeks (10 mg/kg)): did not significantly modify glucose tolerance; also recorded: no significant effect on glucose tolerance; glucose tolerance ([11]; systemic administration, 8 weeks, data not shown): sufficient to improve glucose tolerance
CC(C)C[C@H]1C(=O)N2CCC[C@H]2[C@]2(O)O[C@](NC(=O)[C@@H]3C=C4c5cccc6[nH]c(Br)c(c56)C[C@H]4[N+](C)(C)C3)(C(C)C)C(=O)N12.[I-] [AB01–60, (6aR,9R)-5-Bromo-9-(((2R,5S,10aS,10bS)-10b-hydroxy-5-isobutyl-2-isopropyl-3,6-dioxooctahydro-8H-oxazolo[3,2-a]pyrrolo[2,1-c]pyrazin-2-yl)carbamoyl)-7,7-dimethyl-4,6,6a,7,8,9-hexahydroindolo[4,3-fg]quinolin-7-ium iodide] | 38 ± 11 | 91 | 88 | 1282.3 ± 130.7 | 651.9 ± 133.7 | 0.3 ± 0.03 | 0.51 ± 0.06 | 4260 ± 381 | 1280 ± 71.1 | 5.57 | 17.5 ± 4.9 | 3.14 ± 0.34 | 57.7 | diminished potency in D3R-mediated mitogenesis versus unmodified parent (human D3R [1]): 11.2 fold; plasma levels greater compared to bromocriptine ([3]; 10 mg/kg i.v., 60 min, listed as BrMeI): 8 fold and ~ 8 fold; diminished D2R binding affinity compared to unmodified parent compound (human D2R [4]): 5.3 fold; diminished D3R binding affinity compared to unmodified parent compound (human D3R [12]): 8.5 fold; diminished potency in D2R-mediated mitogenesis versus unmodified parent (human D2R [2]): 15.6 fold
CCC[N+]1(C)CCC[C@@H]2Cc3n[nH]cc3C[C@H]21.[I-] (stereo partly drawn) [AB01–59, (4aR,8aR)-5-Methyl-5-propyl-4,4a,5,6,7,8,8a,9-octahydro-2H-pyrazolo[3,4-g]quinolin-5-ium iodide] | – | – | – | – | – | – | – | – | – | – | – | – | 5.9 | reduced efficacy in GSIS versus unmodified parent (decrease) (INS-1E cells): 48.4%
N[C@@H](Cc1ccc(O)c(O)c1)C(=O)O [L-DOPA] | – | – | – | – | – | – | – | – | – | – | – | – | – | plasma glucose versus saline vehicle (Sprague-Dawley rats): did not significantly impact; plasma insulin versus saline vehicle (Sprague-Dawley rats): did not significantly impact
